What was measured:
Type in all cases: cell-based, Toxoplasma gondii
cps1 and cps2 mutants = experiment: pyrimidine dependence of cps1 and cps2 replication and plaque formation; conditions: relatively low (thymine, thymidine: moderate) concentrations in medium
Text: However, all of these mutants are somewhat “leaky” in that there was not an absolute growth (replication) dependence on uracil addition to the growth medium for replication. Each of these mutants grows at a moderate (½ of normal) growth rate for the first 2 days following infection of a host cell producing vacuoles that contained 16 to 32 parasites by 3 days post infection. In contrast, RH parasites are lysed out of their primary vacuoles at this time (3 days, >64 parasites). However, the cps mutants slow after 3 days and many parasites never (about ⅓) break out of their primary vacuole. If the primary vacuole breaks, a few parasites can be detected at the site of infection but the infection site always involves a small zone of infection that never forms a visible plaque in a standard 7 day plaque assay. To quantitate growth of these mutants, HFF flasks were inoculated with […] or cps2 parasites (about a multiplicity of infection (MOI) of 1 parasite per 20 HFF cells). After 2 hours of attachment and invasion (all of these mutants have normal attachment and invasion phenotypes as scored by counting percent entered parasites into host cells as a function of time post-inoculation), different concentrations of different pyrimidine compound was added to parallel infected HFF flasks. As a function of time post pyrimidine addition (t=0 hour) the number of parasites per vacuole was scored for 50 vacuoles as described by Fox et al. ((1999) supra). The number of parasite doublings was calculated based on 1 parasite entering each primary vacuole. Thus, 1 doubling=2 parasites per vacuole, 3 doublings=8 parasites per vacuole, and 5 doublings=32 parasites per vacuole. The pyrimidine dependence of cps1 and cps2 replication (doublings of parasites in the vacuole) was plotted graphically. […] The response to thymine and thymidine was additionally informative about the cause of the growth defect in cps1 and cps2. […] This is believed to be caused by the putative defect in the cps1 and cps2 mutants which is a reduced “pool” size of UMP. If UMP pools (ultimately used for RNA and DNA synthesis) are lowered it follows that a resulting decrease in TMP pools is expected since UMP is the precursor of TMP in T. gondii and all other apicomplexan parasites which normally lack TK activity. However, since cps1 and cps2 now express a TK activity carried into the parasite by the p53KOX3-1R plasmid, exemplified by sensitivity of these mutants to ganciclovir (specific to HSV TK), feeding parasites either thymine or thymidine is expected to increase TMP pools. Thus, it appears that moderate levels of thymine or thymidine partially rescue growth of cps1 and cps2 by restoring TMP pools. […] Since the parasite has no mechanism to convert TMP back to UMP there is still a defect in the UMP pool in cps1 and cps2 even with added thymine or thymidine and rescue is never complete. The ability of cps1 and cps2 mutants to form plaques on HFF monolayers in the standard 7 day assay paralleled the pyrimidine dependence of parasite replication in vacuoles.
The cps1 and cps2 mutants were inoculated intraperitoneally (i.p.) into balb/c mice to measure parasite virulence compared to virulent RH parasites. Both mutant cps1 and cps2 had equal virulence as RH parasites in balb/c mice (Jackson Labs), killing all mice within 10 days of i.p. inoculation (group size was four mice per parasite strain). Only 100 parasites (˜50 PFU) of each parasite strain was needed to kill all mice in each group. This pattern of virulence can be understood by re-examining the pyrimidine dependence of cps1 and cps2 growth. Uridine is believed to be the pyrimidine responsible for virulence of cps1 and cps2 in mice. Only 5 μM uridine completely rescues normal plaque size of cps1 and cps2 in vitro. Plasma concentrations of uridine in mice are approximately 5 to 10 μM.

wild-type T. gondii = experiment: labeling of parasites with [3H]pyrimidines (pyrimidine salvage); conditions: parasites grown in host cells
Procedure: (§1) Initial experiments primarily involved an enzymatic analysis of drug resistant mutants and the incorporation of various pyrimidine analogs into T. gondii RNA and DNA as an indication of pyrimidine salvage when parasites were grown in either normal host or mutant host cells. All biochemical communications between the parasite and host cells cross the vacuolar membrane which is now known to contain “pores” that permit the passage of nucleobases ranging in molecular mass from 112 daltons up to 244 daltons. The size of the pores is estimated to be approximately 1500 daltons. A T. gondii mutant resistant to 5-fluorodeoxyuridine (FUDR-1) had lost uracil phosphoribosyltransferase (UPRT), an enzyme which is absent in normal host cells (Pfefferkorn (1978) Expt. Parasitol. 44:26-35). […] FUDR-1 mutant parasites were not labeled with [^3H]deoxyuridine. […] FUDR-1 mutant parasites were not labeled with [^3H]uridine. […] FUDR-1 (UPRT knock-out) parasites were not labeled with [^3H]uracil.
Similarly, since uracil only labels the parasite, due to the parasite UPRT, which is absent in the host, the pyrimidine pools of the parasite are also unavailable to the host. Thus, there is no detectable pyrimidine traffic detected between the parasite and host.

FUDR-1 mutant parasites = experiment: labeling of FUDR-1 (UPRT knock-out) parasites with [3H]pyrimidines
Procedure: as §1

cps1-1 and cps2-1 [1] = experiment: pyrimidine rescue of cps1-1 and cps2-1 replication and plaque formation
Procedure: No pyrimidine compound at less than 25 μM could rescue plaque formation of cps1-1 or cps2-1. […] Uridine was quite poor at rescue of plaque formation in cps1-1 and cps2-1.
A more detailed growth response to pyrimidine, measured as parasite replications (doublings) was performed for cps1-1 and cps2-1 and compared to the results previously obtained for […]. […] Uridine rescue was poor, with a slow restoration of growth at very high amounts, >400 μM. Deoxyuridine rescue was significant, but again, full growth rate was not restored at any concentration of deoxyuridine. Rescue with uracil was robust, but only in a limited range of concentration. Full restoration of growth rate in cps1-1 and cps2-1 was possible only with uracil added between 200 and 400 μM. […] This phenotype can only be observed in T. gondii pyrimidine auxotroph mutants, not in wild-type parasites with intact de novo pyrimidine synthesis pathways.
The pyrimidine growth dependence of mutant cps1-1 on the pyrimidine salvage pathway was further documented in thymidine interference experiments. Mutant cps1-1 plaques well in 250 μM uracil or deoxyuridine, but not in 1000 μM thymidine. Since thymidine at 1000 μM is known to inhibit approximately 90% of the parasite nucleoside phosphorylase activity specific for cleavage of deoxyuridine (Iltzsch, (1993) J. Euk. Micro. 40:24-28), growth of cps1-1 was tested in combinations of 1000 μM thymidine and 250 μM uracil or 250 μM deoxyuridine. All pyrimidine salvage in T. gondii must pass through uracil and UPRT conversion of uracil to UMP. In contrast, thymidine has no effect on UPRT activity. Thus, if growth of cps1-1 were dependent on deoxyuridine supplementation then replication in this condition may be inhibited by co-supplementing with 1000 μM thymidine. […] Thus, when cps1-1 is grown in deoxyuridine the parasite strictly requires nucleoside phosphorylase activity to cleave deoxyuridine for growth. […] Thus, cps1-1 and cps2-1 rely strictly on pyrimidine salvage enzymes for growth and further, the HFF host cell in vitro cannot supply sufficient pyrimidines for growth of cps1-1 or cps2-1. […] Such potential inhibitors can only be identified using a pyrimidine auxotroph such as provided in the instant invention.
To assess reversion, 10^6 to 10^7 cps1-1 or cps2-1 parasites were periodically inoculated into HFF flasks supplemented with 5 μM uridine. This concentration of uridine is sufficient to rescue the parent strains (cps1 and cps2) of cps1-1 and cps2-1.

RH parasite = experiment: plaque formation of RH in very high uracil; conditions: 2000 or 4000 μM uracil
tachyzoites = experiment: uracil incorporation assay; conditions: [3H]uracil 25 μg/ml
Procedure: Experiments to evaluate the feasibility of constructing pyrimidine auxotrophs of T. gondii were performed. Pyrimidine auxotrophy relies on the ability to feed mutant parasites a pyrimidine nucleobase, such as uracil, in culture medium in amounts that will restore parasite growth to near normal levels. Experiments were therefore conducted to measure whether uracil incorporation into parasites in culture could account for normal replication and normal growth rates. In these experiments, biochemically saturating amounts of [^3H]uracil (25 μg/ml) were added to the growth medium and the quantitative incorporation of label into parasite RNA and DNA was determined over a four hour interval. It was calculated using known values that about 82% of the pyrimidines incorporated into parasite nucleic acids were derived from the uracil which was added to the growth medium as a supplement.
The uracil incorporation assay, results and calculation of uracil incorporation were carried out as follows. Parasites (2.09×10^7) were labeled for 4 hours in medium containing [^3H]uracil at 25 μg per ml or 0.223 μmole per ml, wherein the specific activity of uracil was 34.3 CPM per pmole (CPM=counts per minute). […] Based upon these parameters, it was concluded that 82% of incorporated pyrimidines originate from uracil when it is added to medium.

cps1-1 and cps2-1 [2] = experiment: drug sensitivity of cps1-1 and cps2-1 in replication and plaque assays; conditions: 10 μM
Text: It is believed that the single recombination into the CPSII locus only partially disrupted expression of CPSII activity in cps1 and cps2. […] Cps1 and cps2 were thus utilized as the parent strain background in which to select a more highly attenuated pyrimidine auxotroph mutant. Both the cps1 and cps2 mutants express a TK allele which was inserted into the CPSII locus. […] Then, approximately 1-2×10^5 cps1 or cps2 parasites was inoculated into a 25 cm^2 HFF flask and selected negatively in the presence of 10 μM ganciclovir plus 200 μM uracil. This is 20 times the dose of ganciclovir necessary to completely block plaque formation of these mutants. […] The parasites which were growing in ganciclovir plus uracil were subcloned in ganciclovir and uracil (same conditions) and individual clones, cps1-1 and cps2-1, were identified from each parent, respectively, for further analysis. The cps1-1 and cps2-1 subclones were first tested for their sensitivity to pyrimethamine. The theory of negative selective in only ganciclovir is that a mutant that disrupts expression of the TK allele should simultaneously acquire sensitivity to pyrimethamine due to loss of the expression of the fused trifunctional DHFR-TK-TS transgene(s) inserted into the CPSII locus of cps1 and cps2.

[3] = tested on: mutants cps1, cps2, cps3, cps4; experiment: plaque formation in ganciclovir, cps mutants
[4] = tested on: T. gondii carrying a single allele of TK from pDHFRm2m3-TK-TS; experiment: plaque formation in ganciclovir, TK-transfected parasites
Text: A modified hit and run mutagenesis was devised for knocking out the T. gondii gene encoding CPSII. First, a new plasmid vector was developed for positive and negative selection analogous to the plasmid described by Fox, et al. ((1999) Mol. Biochem. Parasitol. 98:93-103), except using the herpes simplex virus type I thymidine kinase (TK) gene instead of bacterial cytosine deaminase in the linker region of DHFR-TS. To create this plasmid two primers, a forward primer GGGAGATCTATGGCTTCGTACCCCGGCCATCAA (SEQ ID NO:10) and a reverse primer GGGGATCCTCAGTTAGCCTCCCCCATCTCCCG (SEQ ID NO:11) were used to PCR amplify, via standard conditions, the ganciclovir hypersensitive TK75 HSVTK allele (Black, et al. (1996) Proc. Natl Acad. Sci. USA 93:3525-3529). The forward primer contains a BglII site and the reverse primer a BamHI site. Following BamHI and BglII digestion of the ˜1130 bp PCR product, the TK allele was ligated into plasmid pDHFRm2m3-FLG-TS which was digested at the unique BamHI site in the FLAG epitope linker. The TK PCR primers were designed to join with pDHFRm2m3-FLG-TS to produce an in-frame insertion of TK between DHFR and TS in a plasmid called pDHFRm2m3-TK-TS, similar to previously described pDHFRm2m3-CD-TS plasmid (Fox, et al. (1999) supra). The trifunctional enzyme plasmid with TK was tested to confirm function of all three enzymes. […]

Structure (SMILES) | rescue of growth rate / replication of cps1 and cps2 (cps1 and cps2 mutants) | incorporation of [3H]-labeled pyrimidine into wild-type parasites (wild-type T. gondii) | labeling of FUDR-1 mutant parasites with [3H]pyrimidine (FUDR-1 mutant parasites) | plaque formation of cps1-1 (cps1-1 and cps2-1 [1]; 250 μM supplement) | rescue of replication (doublings) of cps1-1 and cps2-1 (cps1-1 and cps2-1 [1]; 36-hour replication assay, HFF) | plaque formation of cps1-1, cps2-1, cps1 and cps2 (cps1-1 and cps2-1 [1]; 2000 or 4000 μM uracil) | uracil concentration above which growth rate is reduced significantly (cps1-1 and cps2-1 [1]; cps1-1, cps2-1) [µM] | rescue of plaque formation of cps1-1 and cps2-1 (cps1-1 and cps2-1 [1]; plaque assay) | rescue of plaque formation of cps1-1 and cps2-1 (cps1-1 and cps2-1 [1]; pyrimidine concentrations up to 200 μM) | effect on RH parasite plaques (RH parasite) | actual incorporation (tachyzoites) | sensitivity of cps1-1 and cps2-1 to ganciclovir (cps1-1 and cps2-1 [2]) | ganciclovir concentration at which ability to form plaques is lost [3] [µM] | ganciclovir concentration in which parasites do not form plaques [4] [μm]
O=c1cc[nH]c(=O)[nH]1 [uracil] | completely rescued | incorporated into wild-type T. gondii | not labeled | plaques well | robust | do not even form plaques | > 500 | significant growth rescue | completely rescued | no effect | 0.00032 pmoles pyrimidine per tachyzoite per 4 hours |  |  | 
Nc1nc(O)c2ncn(COC(CO)CO)c2n1 [ganciclovir] |  |  |  |  |  |  |  |  |  |  |  | loss of sensitivity | 0.5 | 0.5

Source: patent US8673289B2, “Attenuated uracil auxotroph of an apicomplexan and use thereof” (priority 2007, dated 2014)
